Assay results published in patent US10105437B2, “Epitopes related to coeliac disease” (BTG International Limited, priority 2004, dated 2018).

Legend:
Assay type in all cases: cell-based, human
[1] = tested on: PBMC from subjects with DQ2+ coeliac disease; assay: Interferon gamma ELISPOT, high grade avenin peptides after oats challenge; conditions: for subjects in whom peptide was dominant (>70% maximal response) after oats challenge: day 6 PBMC
Experimental: IFNγ ELISpot assays (Mabtech, Sweden) were performed in 96-well plates (MAIP S-45, Millipore) in which each well contained 25 mcl of peptide solution and 100 mcl of PBMC (2-8×10^5/well) in RPMI containing 10% heat inactivated human AB serum. After development and drying, IFNγ ELISpot plates were assessed using the MAIP automated ELISpot plate counter. Data was then analysed according to a novel algorithm (Expectation Maximization: EM) to define and quantify interferon-gamma responses to 9mer sequences contained within the peptide library (see FIG. 3 and below). 9mer peptides were then rationalised according to an algorithm that assumes redundancy in T-cell recognition, the “IterativeCluster” algorithm (see FIG. 4 and below), by allowing groups of amino acids with similar chemical properties at any one position in the 9mer, or for glutamate to replace glutamine at any position (assuming deamidation may have occurred).
High grade avenin peptides were assessed 3 days after completing oats challenge with pure wheat-free oats, 100 g/d for 3 days (“day 6” PBMC interferon gamma ELISPOT responses). These peptides were designed upon peptides previously defined using the screening grade (“first round”) avenin peptide library and on potential deamidation sites. There were 25 peptides (as 16mers) with purity verified by HPLC as >80%, and sequences confirmed by mass spectroscopy.
Interferon gamma ELISPOT responses to the high grade avenin peptides following deamidation by tTG were compared in 18 subjects with DQ2+ coeliac disease.

[2] = tested on: PBMC from HLA DQ2 coeliac disease subjects; assay: Interferon gamma ELISPOT, combitope comparison after wheat, rye or barley challenge; conditions: for median ELISPOT response as percent of response to Combitope: after wheat challenge, n=16 subjects
Description: The issue of epitope redundancy and the potential utility in diagnostics and therapeutics of peptides designed to combine “unique” dominant epitopes was addressed by comparing interferon gamma ELISPOT responses after wheat (n=16 HLA DQ2 coeliac disease subjects), rye (n=17) or barley (n=13) challenge to the sequences: QLQPFPQPELPYPQPQL (SEQ ID NO: 1903) (“P04724E”), QPEQPFPQPEQPFPWQP (SEQ ID NO: 1904) (“626fEE”), and […] (SEQ ID NO: 1905) (“Combitope”). After rye and barley challenge the sum of the median ELISPOT responses (spot forming units) to P04724E and 626fEE were almost identical (99%, and 102%, respectively) to the response to a similar (optimal) concentration of the Combitope. However, after wheat challenge (n=16 subjects), median P04724E response was 89% of that to Combitope, and median 626fEE responses was 70% of the response to Combitope.

[3] = tested on: PBMC from HLA DQ8+DQ2- CD subjects; assay: Interferon gamma ELISPOT, glutenin 20mer library in HLA DQ8 subjects; conditions: tTG-pretreated glutenin 20mers sharing the motif or sequence
Description: PBMC from two subjects initially challenged were used to screen the first round “Melbourne” wheat gliadin 20mer library. The 20mer sequences identified using PBMC from these two HLA DQ8 CD subjects were dissected further by screening, in five HLA DQ8+DQ2− CD subjects including the two original subjects, a second round library based on reactive 20mers in the 1st round library. The 2nd round library consisted of screening grade overlapping 16mers, and 13mers predicted to correspond to tTG-mediated deamidation products of epitopes with the potential for deamidation of glutamine at position 1 and/or position 9 (consistent with the HLA DQ8 peptide binding motif). In addition, the 1400 glutenin (HMW and LMW) tTG-pretreated 20mers in the “Melbourne” wheat gluten library were also screened in these five subjects.
Dominant 20mer peptides shared the motifs or had the sequences: PQQQQQQLVQQQ (SEQ ID NO: 1917), QGIFLQPH(LQ)I(AS)QLEV (SEQ ID NO: 1918), QPGQGQQG(HY)Y (SEQ ID NO: 1919), QSRYEAIRAII(FY)S (SEQ ID NO: 1920), RTTTSVPFD (SEQ ID NO: 1921), QPPFWRQQP (SEQ ID NO: 1922), Q(PS)(PS)(FI)(PS) QQQQ (SEQ ID NO: 1923), (QPLR)GYYPTSPQ (SEQ ID NO: 1924) (previously identified HLA DQ8 epitope, van der Wal 2001), QGSYYPGQASPQ (SEQ ID NO: 1925), […] (SEQ ID NO: 1926), and […] (SEQ ID NO: 1927). Glutenin peptides were assessed after pre-treatment with transglutaminase.

[4] = tested on: PBMC from HLA-DQ2+ subjects; assay: Interferon gamma ELISPOT, initial gliadin epitope screening library; conditions: 15 HLA-DQ2+ subjects, deamidated 20mers
Description: In initial experiments involving 29 HLA-DQ2+ individuals with coeliac disease on long-term gluten free diet, interferon-gamma ELISPOT assays were used to screen a previous Pepset (described in WO 03/104273, which is incorporated herein by reference) initially as pools of peptides and then in 15 subjects as individual peptides with and without deamidation by tTG. This Pepset library consisted of 652 20mer gliadin peptides spanning all unique 12mers contained within all Genbank entries described as wheat gliadins found in September 2001. This Pepset library was designed “manually” from gene-derived protein sequences aligned using ClustalW software (MegAlign) arranged into phylogenetic groupings.
Approximately 0.6 micromole of each of 652 of the 20mers was provided. Two marker 20mer peptides were included in each set of 96 ([…]—peptide 161 (SEQ ID NO: 1931), and […] (SEQ ID NO: 1932)) and were characterized by reverse phase-HPLC and amino acid sequence analysis. Average purities of these marker peptides were 19% and 50%, respectively. Peptides were initially dissolved in acetonitrile (10%) and Hepes 100 mM to 10 mg/ml. The final concentration of individual peptides incubated with PBMC for the IFNγ ELISpot assays was 20 mcg/ml. These peptides were deamidated by incubation with guinea pig tissue tTG (Sigma T5398) in the ratio 100:32 mcg/ml for two hours at 37° C. […]

[5] = after oats challenge, deamidated by tTG, 18 subjects

Substance: QIPEQLRCPAIHSVVQ (Description of Artificial Sequence: Synthetic gluten peptide)
- subjects with positive responses [1, 5]: 3/18

Substance: QLQPFPQPELPYPQPQL (Description of Artificial Sequence: Synthetic gluten peptide) [Peptide P04724E]
- sum of the median ELISPOT responses to P04724E and 626fEE relative to response to Combitope ([2]; after barley challenge, n=13): 102%
- sum of the median ELISPOT responses to P04724E and 626fEE relative to response to Combitope ([2]; after rye challenge, n=17): 99%
- median ELISPOT response as percent of response to Combitope [2]: 89%

Substance: QGSYYPGQASPQ (Description of Artificial Sequence: Synthetic gluten peptide) [motif of dominant glutenin 20mers, HLA DQ8]
- dominance among five subjects [3]: dominant in at least one of the five subjects

Substance: QPPFWRQQP (Description of Artificial Sequence: Synthetic gluten peptide) [motif of dominant glutenin 20mers, HLA DQ8]
- dominance among five subjects [3]: dominant in at least one of the five subjects

Substance: QPEQPFPQPEQPFPWQP (Description of Artificial Sequence: Synthetic gluten peptide) [Peptide 626fEE]
- sum of the median ELISPOT responses to P04724E and 626fEE relative to response to Combitope ([2]; after barley challenge, n=13): 102%
- sum of the median ELISPOT responses to P04724E and 626fEE relative to response to Combitope ([2]; after rye challenge, n=17): 99%
- median ELISPOT response as percent of response to Combitope [2]: 70%

Substance: QLRCPAIHSVVQAIIL (Description of Artificial Sequence: Synthetic gluten peptide)
- subjects in whom peptide was dominant (>70% maximal response) after oats challenge ([1]; deamidated by tTG, 18 subjects): 4/18

Substance: GYYPTSSLQPEQGQQGYYPT (Description of Artificial Sequence: Synthetic gluten peptide) [glutenin 20mer, HLA DQ8]
- dominance among five subjects [3]: dominant in at least one of the five subjects

Substance: SEQYQPYPEQQEPFVQ (Description of Artificial Sequence: Synthetic gluten peptide) [peptide 1490, avenin peptide reported in Arentz-Hansen, PLoS Medicine 2004, reference compound]
- subjects with far weaker response ([1]; after oats challenge): 5
- subjects with strong positive response ([1]; after oats challenge): one

Substance: PQQQQQQLVQQQ (Description of Artificial Sequence: Synthetic gluten peptide) [motif of dominant glutenin 20mers, HLA DQ8]
- dominance among five subjects [3]: dominant in at least one of the five subjects

Substance: PQPFPPQLPYPQPQLPYPQP (Description of Artificial Sequence: Synthetic gliadin peptide) [Peptide 91]
- potency rank in library [4]: most potent gliadin 20mer

Substance: QGQQLAQGQQGQQPAQVQQG (Description of Artificial Sequence: Synthetic gluten peptide) [glutenin 20mer, HLA DQ8]
- dominance among five subjects [3]: dominant in at least one of the five subjects

Substance: (QPLR)GYYPTSPQ: previously identified HLA DQ8 epitope, van der Wal 2001 [reference compound]
- dominance among five subjects [3]: dominant in at least one of the five subjects

Substance: EQYQPEQQPFMQPL (Description of Artificial Sequence: Synthetic gluten peptide)
- subjects with >40% maximal peptide response [1, 5]: 5/18

Substance: QYQPYPEQEQPILQQQ (Description of Artificial Sequence: Synthetic gluten peptide)
- subjects in whom peptide was dominant (>70% maximal response) after oats challenge ([1]; deamidated by tTG, 18 subjects): 3/18

Substance: EQQFGQNIFSGFSVQL (Description of Artificial Sequence: Synthetic gluten peptide)
- subjects in whom peptide was dominant (>70% maximal response) after oats challenge ([1]; deamidated by tTG, 18 subjects): 11/18

Substance: RTTTSVPFD (Description of Artificial Sequence: Synthetic gluten peptide) [motif of dominant glutenin 20mers, HLA DQ8]
- dominance among five subjects [3]: dominant in at least one of the five subjects
